According to patent US20240360148A1 (SUVALENT THERAPEUTICS, INC., priority 2021, published 2024):

What was measured:
SAE1 [1] = molecular target: SAE1 (Homo sapiens (Human), UniProt Q9UBT2); test: SAE High Throughput Biochemical Assay (HTRF), 15 min preincubation; details: SAE1 12.5 nM, ATP 100 μM
Summary of the method: (§1)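 SAE1 (12.5 nM) was preincubated with compound for 15 min at RT in HEPES pH 7.5, 0.1% BSA, 10 mM MgCl2. The reaction was then started with SUMO-GST and UBC9-His (40 nM each) plus 100 μM ATP for 45 min. After KF stop, HTRF (anti-GST-XL665/anti-His-EuK) was read at 2 h and overnight; some compounds were tested singly at 25 micromolar as percent of control.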

[2] = system: sumoylation levels (SUMO 2/3 conjugates) in HCT-116 cells; test: HCT-116 4 Hour Cell Assay (Western, SUMO 2/3 conjugates); assay type: cell-based; details: Homo sapiens, HCT-116, 4 h, 4 h treatment, Anti-Sumo 2-3 immunoblot, read-out: HCT-116 Western 4 h IC50 (μM) Ave
Summary of the method: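 Cells treated 4 h with 11 three-fold dilutions from 25 μM; lysed in RIPA with NEM and Benzonase. Non-reducing SDS-PAGE immunoblot with anti-SUMO 2/3 mAb, IRDye fluorescent detection; conjugate signal normalized to total protein stain, IC50 from quantified bands.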

SAE1 [3] = molecular target: SAE1 (Homo sapiens (Human), UniProt Q9UBE0+Q9UBT2); test: SAE High Throughput Biochemical Assay (HTRF), 15 min preincubation; details: read-out: 15 min preincubation HTRF IC50 (μM) Ave, SAE1 12.5 nM, ATP 100 μM
Summary of the method: as §1

Chain of SAE1 (Homo sapiens (Human), UniProt Q9UBT2) (Q9UBE0 whole entry): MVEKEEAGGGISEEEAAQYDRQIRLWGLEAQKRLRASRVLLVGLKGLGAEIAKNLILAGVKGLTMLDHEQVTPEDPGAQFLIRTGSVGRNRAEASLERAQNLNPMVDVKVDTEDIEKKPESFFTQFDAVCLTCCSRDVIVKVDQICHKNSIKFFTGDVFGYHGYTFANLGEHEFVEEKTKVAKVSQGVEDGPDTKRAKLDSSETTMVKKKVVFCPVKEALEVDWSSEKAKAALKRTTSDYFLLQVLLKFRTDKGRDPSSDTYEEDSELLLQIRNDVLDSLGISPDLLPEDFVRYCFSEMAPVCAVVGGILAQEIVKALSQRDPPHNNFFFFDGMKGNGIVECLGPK
Chain of SAE1 (Homo sapiens (Human), UniProt Q9UBT2) (Q9UBT2 whole entry): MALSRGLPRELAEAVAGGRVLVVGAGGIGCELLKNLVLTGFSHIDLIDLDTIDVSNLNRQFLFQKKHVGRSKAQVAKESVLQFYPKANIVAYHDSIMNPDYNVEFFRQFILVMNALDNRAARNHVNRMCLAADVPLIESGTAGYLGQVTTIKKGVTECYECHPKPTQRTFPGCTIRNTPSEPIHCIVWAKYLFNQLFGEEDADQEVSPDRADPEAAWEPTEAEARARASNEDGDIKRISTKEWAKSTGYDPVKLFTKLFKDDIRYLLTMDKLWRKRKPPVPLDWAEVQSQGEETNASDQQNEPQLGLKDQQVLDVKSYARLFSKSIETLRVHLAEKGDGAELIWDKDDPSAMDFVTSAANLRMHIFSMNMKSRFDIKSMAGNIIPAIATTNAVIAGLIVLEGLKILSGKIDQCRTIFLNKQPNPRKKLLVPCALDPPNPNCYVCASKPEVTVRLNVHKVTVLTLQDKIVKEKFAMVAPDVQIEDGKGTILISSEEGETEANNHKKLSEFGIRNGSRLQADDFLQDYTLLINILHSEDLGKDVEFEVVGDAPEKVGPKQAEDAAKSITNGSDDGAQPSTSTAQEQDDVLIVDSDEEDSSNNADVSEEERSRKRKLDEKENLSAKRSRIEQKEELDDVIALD
Chain of SAE1 (Homo sapiens (Human), UniProt Q9UBE0+Q9UBT2) (Q9UBE0 whole entry): as the sequence (Q9UBE0 whole entry) above
Chain of SAE1 (Homo sapiens (Human), UniProt Q9UBE0+Q9UBT2) (Q9UBT2 whole entry): as the sequence (Q9UBT2 whole entry) above

Structure (SMILES) | IC50 (SAE1 [1]) | IC50 [2] | IC50 (SAE1 [3])
CCOC/C=C/C(=O)N1Cc2sc(C#N)cc2[C@H](c2ccccc2-c2cn(CC)nc2C(F)(F)F)C1 [Example 8, (S, E)-6-(4-Ethoxybut-2-enoyl)-4-(2-(1-ethyl-3-(trifluoromethyl)-1 H-pyrazol-4-yl)phenyl)-4,5,6,7 tetrahydrothieno[2,3-c]pyridine-2-carbonitrile] | 10800 nM | – | –
CCn1cc(-c2ccccc2[C@@H]2CN(C(=O)/C=C/CN(C)OC)Cc3sc(C#N)cc32)c(C(F)(F)F)n1 [Example 11, (S, E)-4-(2-(1-Ethyl-3-(trifluoromethyl)-1 H-pyrazol-4-yl)phenyl)-6-(4-(methoxy(methyl)amino)but-2-enoyl)-4,5,6,7-tetrahydrothieno[2,3-c]pyridine-2-carbonitrile] | > 25000 nM | – | –
CCn1cc(-c2ccccc2[C@@H]2CN(C(=O)/C=C/[C@H](C)N(C)C)Cc3sc(C#N)cc32)c(C(F)(F)F)n1 [Example 13, (S)-6-((S, E)-4-(dimethylamino)pent-2-enoyl)-4-(2-(1-ethyl-3-(trifluoromethyl)-1 H-pyrazol-4-yl)phenyl)-4,5,6,7-tetrahydrothieno[2,3-c]pyridine-2-carbonitrile] | 6220 nM | – | –
CCC(/C=C/C(=O)N1Cc2sc(C#N)cc2[C@H](c2ccccc2-c2cn(CC)nc2C(F)(F)F)C1)N(C)C (stereo partly drawn) [Example 24, (4S)-6-((E)-4-(dimethylamino)hex-2-enoyl)-4-(2-(1-ethyl-3-(trifluoromethyl)-1 H-pyrazol-4-yl)phenyl)-4,5,6,7-tetrahydrothieno[2,3-c]pyridine-2-carbonitrile] | > 25000 nM | – | –
CCC(N)/C=C/C(=O)N1Cc2sc(C#N)cc2[C@H](c2ccccc2-c2cn(CC)nc2C(F)(F)F)C1 (stereo partly drawn) [Example 39, (4S)-6-((E)-4-aminohex-2-enoyl)-4-(2-(1-ethyl-3-(trifluoromethyl)-1 H-pyrazol-4-yl)phenyl)-4,5,6,7-tetrahydrothieno[2,3-c]pyridine-2-carbonitrile] | 8560 nM | – | –
CCn1cc(-c2ccccc2[C@@H]2CN(C(=O)/C=C/C(N)C3CC3)Cc3sc(C#N)cc32)c(C(F)(F)F)n1 (stereo partly drawn) [Example 42, (4S)-6-((E)-4-amino-4-cyclopropylbut-2-enoyl)-4-(2-(1-ethyl-3-(trifluoromethyl)-1 H-pyrazol-4-yl)phenyl)-4,5,6,7-tetrahydrothieno[2,3-c]pyridine-2-carbonitrile] | 8390 nM | – | –
CC(C#N)n1cc(-c2ccccc2[C@@H]2CN(C(=O)/C=C/CN(C)C)Cc3sc(C#N)cc32)c(C(F)(F)F)n1 (stereo partly drawn) [Example 165, (4S)-4-(2-(1-(1-Cyanoethyl)-3-(trifluoromethyl)-1H-pyrazol-4-yl)phenyl)-6-((E)-4-(dimethylamino)but-2-enoyl)-4,5,6,7-tetrahydrothieno[2,3-c]pyridine-2-carbonitrile] | – | 1.06 µM | 3.42 µM
CCn1cc(-c2ccc(F)cc2C2CN(C(=O)/C=C/CN(C)C)Cc3sc(C#N)cc32)c(C(F)(F)F)n1 (centres unmarked) [Example 180, (E)-6-(4-(Dimethylamino)but-2-enoyl)-4-(2-(1-ethyl-3-(trifluoromethyl)-1 H-pyrazol-4-yl)-5-fluorophenyl)-4,5,6,7-tetrahydrothieno[2,3-c]pyridine-2-carbonitrile] | – | 1.15 µM | 5.29 µM
CCn1cc(C2=C(C3CN(C(=O)/C=C/CN(C)C)Cc4sc(C#N)cc43)CCCC2)c(C(F)(F)F)n1 (centres unmarked) [Example 181, (E)-6-(4-(Dimethylamino)but-2-enoyl)-4-(2-(1-ethyl-3-(trifluoromethyl)-1 H-pyrazol-4-yl)cyclohex-1-en-1-yl)-4,5,6,7-tetrahydrothieno[2,3-c]pyridine-2-carbonitrile] | – | 0.878 µM | 3.16 µM
CCn1cc(-c2c(F)cc(F)cc2C2CN(C(=O)/C=C/CN(C)C)Cc3sc(C#N)cc32)c(C(F)(F)F)n1 (centres unmarked) [Example 183, (E)-6-(4-(Dimethylamino)but-2-enoyl)-4-(2-(1-ethyl-3-(trifluoromethyl)-1 H-pyrazol-4-yl)-3,5-difluorophenyl)-4,5,6,7-tetrahydrothieno[2,3-c]pyridine-2-carbonitrile] | – | 0.321 µM | 2.16 µM
CCn1cc(-c2c(Cl)cc(F)cc2C2CN(C(=O)/C=C/CN(C)C)Cc3sc(C#N)cc32)c(C(F)(F)F)n1 (centres unmarked) [Example 186, (E)-4-(3-Chloro-2-(1-ethyl-3-(trifluoromethyl)-1 H-pyrazol-4-yl)-5-fluorophenyl)-6-(4-(dimethylamino)but-2-enoyl)-4,5,6,7-tetrahydrothieno[2,3-c]pyridine-2-carbonitrile] | – | 2.13 µM | 6.37 µM
CCn1cc(-c2c(C3CN(C(=O)/C=C/CN(C)C)Cc4sc(C#N)cc43)ccc(O)c2F)c(C(F)(F)F)n1 (centres unmarked) [Example 189, (E)-6-(4-(Dimethylamino)but-2-enoyl)-4-(2-(1-ethyl-3-(trifluoromethyl)-1 H-pyrazol-4-yl)-3-fluoro-4-hydroxyphenyl)-4,5,6,7-tetrahydrothieno[2,3-c]pyridine-2-carbonitrile] | – | 0.46 µM | 1.67 µM
CCn1cc(-c2cc(NS(C)(=O)=O)ccc2C2CN(C(=O)/C=C/CN(C)C)Cc3sc(C#N)cc32)c(C(F)(F)F)n1 (centres unmarked) [Example 193, (E)-N-(4-(2-Cyano-6-(4-(dimethylamino)but-2-enoyl)-4,5,6,7-tetrahydrothieno[2,3-c]pyridin-4-yl)-3-(1-ethyl-3-(trifluoromethyl)-1 H-pyrazol-4-yl)phenyl)methanesulfonamide] | – | 8.85 µM | 9.08 µM
CCn1cc(-c2c(C3CN(C(=O)/C=C/CN(C)C)Cc4sc(C#N)cc43)csc2C)c(C(F)(F)F)n1 (centres unmarked) [Example 199, (E)-6-(4-(Dimethylamino)but-2-enoyl)-4-(4-(1-ethyl-3-(trifluoromethyl)-1 H-pyrazol-4-yl)-5-methylthiophen-3-yl)-4,5,6,7-tetrahydrothieno[2,3-c]pyridine-2-carbonitrile] | – | 1.26 µM | 2.87 µM
CCn1cc(-c2c(C)cccc2C2CN(C(=O)/C=C/CN(C)C)Cc3sc(C#N)cc32)c(C(F)(F)F)n1 (centres unmarked) [Example 200, (E)-6-(4-(Dimethylamino)but-2-enoyl)-4-(2-(1-ethyl-3-(trifluoromethyl)-1 H-pyrazol-4-yl)-3-methylphenyl)-4,5,6,7-tetrahydrothieno[2,3-c]pyridine-2-carbonitrile] | – | 0.891 µM | 2.28 µM
CCn1cc(-c2c(Cl)cccc2C2CN(C(=O)/C=C/CN(C)C)Cc3sc(C#N)cc32)c(C(F)(F)F)n1 (centres unmarked) [Example 201, (E)-4-(3-Chloro-2-(1-ethyl-3-(trifluoromethyl)-1 H-pyrazol-4-yl)phenyl)-6-(4-(dimethylamino)but-2-enoyl)-4,5,6,7-tetrahydrothieno[2,3-c]pyridine-2-carbonitrile] | – | 1.46 µM | 1.56 µM
CCn1cc(-c2cc(O)ccc2C2CN(C(=O)/C=C/CN(C)C)Cc3sc(C#N)cc32)c(C(F)(F)F)n1 (centres unmarked) [Example 203, (E)-6-(4-(Dimethylamino)but-2-enoyl)-4-(2-(1-ethyl-3-(trifluoromethyl)-1 H-pyrazol-4-yl)-4-hydroxyphenyl)-4,5,6,7-tetrahydrothieno[2,3-c]pyridine-2-carbonitrile] | – | 0.767 µM | 4.75 µM
CCn1cc(-c2c(F)cccc2[C@@H]2CN(C(=O)/C=C/CNC34CC(C3)C4)Cc3sc(C#N)cc32)c(C(F)(F)F)n1 [Example 246, (S, E)-6-(4-(bicyclo[1.1.1]pentan-1-ylamino)but-2-enoyl)-4-(2-(1-ethyl-3-(trifluoromethyl)-1 H-pyrazol-4-yl)-3-fluorophenyl)-4,5,6,7-tetrahydrothieno[2,3-c]pyridine-2-carbonitrile] | – | 0.483 µM | 1.65 µM
CN(C)C/C=C/C(=O)N1Cc2sc(C#N)cc2[C@H](c2cccc(F)c2-c2cn(C)nc2C(F)(F)F)C1 [Example 250, (S)-6-((E)-4-(dimethylamino)but-2-enoyl)-4-((S)-3-fluoro-2-(1-methyl-3-(trifluoromethyl)-1 H-pyrazol-4-yl)phenyl)-4,5,6,7-tetrahydrothieno[2,3-c]pyridine-2-carbonitrile] | – | 0.263 µM | 0.76 µM
Cc1c(C#N)sc2c1[C@H](c1cccc(F)c1-c1cn(C)nc1C(F)(F)F)CN(C(=O)/C=C/[C@@H]1CCCN1)C2 [Example 251, (S)-4-(3-fluoro-2-(1-methyl-3-(trifluoromethyl)-1 H-pyrazol-4-yl)phenyl)-3-methyl-6-((E)-3-((S)-pyrrolidin-2-yl)acryloyl)-4,5,6,7-tetrahydrothieno[2,3-c]pyridine-2-carbonitrile] | – | 0.0822 µM | 0.11 µM
CC[C@H]1CNC(/C=C/C(=O)N2Cc3sc(C#N)cc3[C@H](c3cccc(F)c3-c3cn(CC)nc3C(F)(F)F)C2)C1 (stereo partly drawn) [Example 252, (S)-4-((S)-2-(1-ethyl-3-(trifluoromethyl)-1 H-pyrazol-4-yl)-3-fluorophenyl)-6-((E)-3-((2S,4R)-4-ethylpyrrolidin-2-yl)acryloyl)-4,5,6,7-tetrahydrothieno[2,3-c]pyridine-2-carbonitrile] | – | 0.288 µM | 0.39 µM
CCn1cc(-c2c(F)cccc2[C@@H]2CN(C(=O)/C=C/C3CC(F)(F)CN3)Cc3sc(C#N)cc32)c(C(F)(F)F)n1 (stereo partly drawn) [Example 253, (S)-6-((E)-3-((S)-4,4-difluoropyrrolidin-2-yl)acryloyl)-4-((S)-2-(1-ethyl-3-(trifluoromethyl)-1 H-pyrazol-4-yl)-3-fluorophenyl)-4,5,6,7-tetrahydrothieno[2,3-c]pyridine-2-carbonitrile 2,2,2-trifluoroacetate] | – | 0.919 µM | 2.92 µM
